Assay results: patent US20240415790A1, “A COMPOSITION FOR USE IN THE TREATMENT OF INTERVERTEBRAL DISC HERNIATION” (STAYBLE THERAPEUTICS AB, priority 2020, published 2024)
Values joined by “and” are separate entries in the source; they are usually repeats but may differ in a detail not shown here. Identical values can stand only once.

Assays:
[1] = test system: porcine lumbar spine (L3/4 IVD); assay: Flexural rigidity of the isolated porcine lumbar spine after intradiscal LA (series 1); type: in vivo, pig; settings: 28 days
Method: The pigs were pre-medicated by intramuscular injection of dexmedetomidin (Domitor®vet, Orion Pharma, Sollentuna, Sweden) and a commercial mixture of zolazepam and tiletamine (Zoletil®vet 100, Virbac, Carros, France) in conventional doses. Anesthesia was maintained by buprenophine ([…], Orion Pharma) 0.03 mg/kg intramuscularly, carpofen (Rimadyl®vet, Orion Pharma) 4 mg/kg intravenously and isoflurane ([…] Pharma AB, Stockholm, Sweden) using a Servo 900 respirator (Siemens, Munich, Germany). Before recovering from anesthesia, atipamezol (Antisedan®vet, Orion Pharma) was given intramuscularly. On the first three days after surgery the pigs received oral carprofen 2 mg/kg twice daily. The pigs were placed on the right side. […] The concentration was determined based on the pilot experiments on the effects of LA on collagen secretion from human NP cells (as described in WO 2017/046030). […] The height and width of normally appearing NP (FIG. 6a) in the anteroposterior (short vertical double arrow) and bilateral (short horizontal double arrow) directions, respectively, were measured and expressed in relation to the height (long vertical double arrow), and width (long horizontal double arrow) of the IVD. […] The distances between the lateral processes of the vertebrae cranially and caudally to the injected IVD was measured with a caliper at full ipsi- or contralateral flexion. […]

[2] = test system: porcine IVD; assay: T2-weighted MRI and photographs of porcine IVD after LA (series 3), disc height and width; type: in vivo; settings: pig
Method: Since effects of LA on the NP in the subsequent clinical study was planned to be assessed using MRI, the third series focused on the effects of LA (0.2 mL, 60 mg/mL) on sclerotization as measured by T2-weighted MRI. In addition, effects of LA on the expression of collagen I and II were studied by immunohistochemistry (IHC). […] MR images were obtained using a 7T small animal MRI system (Bruker Biospec). A single 50 mm volume coil array was used (Tx/Rx). The dissected spines were stripped of the attached muscles, the spinous processes, transverse processes, and posterior aspects of the facet joints to allow them to fit in the MRI system. T2-weighted (TR: 2500-2834 ms, TE: 33-35.84 ms), 2D TurboRARE transversal and sagittal sequences were used. The TR and TE could not be maintained the same for all sequences due to required adjustments in field of view the different specimens, leading to an increased pixel matrix which affected the TR and TE. For the transverse sequences, a 500 μm slice thickness with 750 μm interslice distance and an in-plane resolution of 166×166 μm was used. For the sagittal sequences, a 750 μm slice thickness with 2000 μm interslice distance and an in-place resolution of 166×166 μm was used. […] Images were analyzed using Sante DICOM Viewer (version 8.1.5, Santesoft, Athens, Greece). The treated IVDs in all animals were assessed, and the IVD one level above the treated IVD was scanned as control. The size of the NP was quantified using both MR images and photographs of the IVDs (see FIG. 6). The results from the macroscopic and MR analyses were then correlated. […] The relative disc height was expressed as a ratio of height of treated IVD/height of untreated (control) IVD. Analogously, the relative disc width was expressed as a ratio of width of treated IVD/width of untreated (control) IVD.

[3] = test system: patients with chronic discogenic low back pain; assay: Clinical study, exploratory VAS back and leg pain and ODI; type: in vivo, human
From the text: Scoring of visual analog scale (VAS) for both back and leg pain and Oswestry Disability Index (ODI) were used as exploratory objectives. The sample size was not based on power calculations but was considered appropriate for a single ascending dose study to provide initial safety data on 3 different dose levels of the LA formulation. The study has been registered on the ClinicalTrials.gov website and on the EU Clinical Trials Register. It was approved by the Stockholm Regional Ethics Committee (approval No. 2016-2323-31/4) and by the Swedish Medical Products Agency (approval No. 5.1-2016-86227).
Disability was evaluated using the ODI.

[4] = individual animals 1-5, LA 0.2 mL 60 mg/mL
[5] = mean of 5 animals, LA 0.2 mL 60 mg/mL

## CC(O)C(=O)O (centres unmarked) [LA, lactic acid]
[1]; pig L3/4 IVD, 0.2 mL LA 120 mg/mL intradiscal, n=6, difference of process distances at full flexion (lower = stiffer)
  Flexural rigidity (mm, mean ± SD): 2.7 ± 1.1 mm
[1]; pig, LA 120 mg/mL
  Flexural rigidity, LA- vs placebo-injected and naive IVDs: marked difference in flexural rigidity
[2]; 60 mg/ml LA, 30 days prior to the image, vs untreated control IVD
  Height of the treated IVD on MR image (FIG. 12): significant reduction in height
[2]; LA 60 mg/mL
  T2-weighted MRI intensity of the sclerotized NP: much lower
[2]; [4]
  Relative disc height (treated IVD/untreated control IVD): 0.55 and 0.2 and 0.33 and 0.7 and 0.36
  Relative disc width (treated IVD/untreated control IVD): 1 and 1.01 and 0.99 (2×) and 1.04
[2]; [5]
  Relative disc height, mean value: 0.43
  Relative disc width, mean value: 1.01
[3]; 45 mg group, baseline
  Leg pain (VAS) at baseline: no leg pain
[3]; 90 mg group
  Mean leg pain at screening: 3 mm
[3]; 180 mg group
  Mean leg pain at screening: 14 mm
[3]; LA 45 mg, Visit 1 (Screening), baseline
  VAS (mm) for cLBP, Mean (SD): 19 mm and 19 (10) mm
[3]; LA 45 mg, Visit 5 (3 months)
  VAS (mm) for cLBP, Mean (SD): 22 (8) mm
[3]; LA 45 mg, Visit 6 (6 months)
  VAS (mm) for cLBP, Mean (SD): 52 (28) mm
[3]; LA 45 mg, Visit 7 (12 months)
  VAS (mm) for cLBP, Mean (SD): 59 (40) mm
[3]; LA 90 mg, Visit 1 (Screening), baseline
  VAS (mm) for cLBP, Mean (SD): 44 mm and 44 (25) mm
[3]; LA 90 mg, Visit 5 (3 months)
  VAS (mm) for cLBP, Mean (SD): 44 (22) mm
[3]; LA 90 mg, Visit 6 (6 months)
  VAS (mm) for cLBP, Mean (SD): 44 (6) mm
[3]; LA 90 mg, Visit 7 (12 months)
  VAS (mm) for cLBP, Mean (SD): 34 (14) mm
[3]; LA 180 mg, Visit 1 (Screening), baseline
  VAS (mm) for cLBP, Mean (SD): 52 mm and 52 (18) mm
[3]; LA 180 mg, Visit 5 (3 months)
  VAS (mm) for cLBP, Mean (SD): 27 (15) mm
[3]; LA 180 mg, Visit 6 (6 months)
  VAS (mm) for cLBP, Mean (SD): 28 (32) mm
[3]; LA 180 mg, Visit 7 (12 months)
  VAS (mm) for cLBP, Mean (SD): 61 (26) mm
